Measured values from US9624247B2, “Pyrazolo-pyrrolidin-4-one derivatives as bet inhibitors and their use in the treatment of disease” (NOVARTIS AG, priority 2013, dated 2017).

What was measured:
MV-4-11 cells = experiment: Cell growth inhibition assay (CellTiter-Glo), MV-4-11; format: cell-based, human; conditions: MV-4-11, 4 days; for GI50: Homo sapiens, MV4-11, 96 h, half-maximal growth inhibition; for MV-4-11 TGI: total growth inhibition
Description: (§1) Cell Growth Inhibition Assay
(§2) The human leukemia cell lines MV-4-11, THP-1 and K-562 were employed to characterize the effect of BET inhibitors on cellular proliferation and viability. Cells were obtained from the American Type Culture Collection (ATCC) and cultured at 37° C. in a humidified 5% CO2 incubator in the following media: MV-4-11: DMEM high glucose (Animed #1-26F01-I), 10% FCS (Animed #2-01F26-I), 4 mM L-Glutamine (Animed #5-10K50), 1 mM Sodium Pyruvate (Animed #G03625P), lx Penicillin-Streptomycin (Animed #F12478P); K-562: Iscove's MEM (Animed #1-28F16-I), 10% FCS (Animed #2-01F26-I), 4 mM L-Glutamine (Animed #5-10K50), 1× Penicillin-Streptomycin (Animed #F12478P); THP-1: RPMI-1640 (Animed #1-41F01-I), 10% FCS (Animed #2-01F26-I), 2 mM L-Glutamine (Animed #5-10K50), 10 mM HEPES (Animed #5-31F100), 1 mM Sodium Pyruvate (Animed #G03625P), 1× Penicillin-Streptomycin (Animed #F12478P). The AML lines MV-4-11 and THP-1 are very sensitive to BET inhibitors and show massive cell death upon BET inhibition (Zuber et al., Nature, 478 (2011), 524-8). Compound-mediated suppression of cell proliferation/viability was assessed by quantification of cellular ATP levels using the CellTiter-Glo (CTG) reagent (Promega). Briefly, cells were seeded in 20 μl fresh medium into 384-well plates, followed by addition of 5 μl medium containing compound dilutions at 5-fold their final intended concentration. Dose-response effects were assessed by 3-fold serial dilutions of the test compound, starting at 10 μM. Following incubation of the cells for 4 days at 37° C. and 5% CO2, the effect of inhibitors on cell viability was quantified following addition of 20 μl CTG and luminescence quantification (integration time: 100 ms) as per vendor manual, using a correspondingly equipped Tecan M200 multi-mode platereader (TECAN, Switzerland). For data analysis, the assay background value determined in wells containing medium, but no cells, was subtracted from all data points. To enable differentiation of cytotoxic from cytostatic compounds, the number of viable cells is assessed relative to that observed at the time of compound addition using a separate cell plate (day 0). The effect of a particular test compound concentration on cell proliferation/viability is expressed as percentage of the background- and day 0-corrected luminescence reading obtained for cells treated with vehicle only (DMSO, 0.1% final concentration), which is set as 100%, whereas that luminescence reading for wells containing medium is set as −100%. Compound concentrations leading to half-maximal (IC50) and total growth inhibition (TGI) were determined using standard four parameter curve fitting.

THP-1 cells = experiment: Cell growth inhibition assay (CellTiter-Glo), THP-1; format: cell-based, human; conditions: THP-1, 4 days; for GI50: Homo sapiens, 96 h, half-maximal growth inhibition; for THP-1 TGI: total growth inhibition
Description: as §1, §2

[1] = target: CREBBP bromodomain (His-CREBBP(1081-1197)) (Homo sapiens (Human), UniProt Q92793); experiment: AlphaScreen in-vitro binding assay for CREBBP; conditions: AlphaScreen, acetyl-histone H4 peptide; read-out: CREBBP IC50
Sequence of CREBBP bromodomain (His-CREBBP(1081-1197)) (Q92793 1081-1197): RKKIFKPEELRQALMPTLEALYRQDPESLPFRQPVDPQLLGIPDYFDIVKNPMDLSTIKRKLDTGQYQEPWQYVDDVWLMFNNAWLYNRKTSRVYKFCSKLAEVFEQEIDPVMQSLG
Description: AlphaScreen In-Vitro Binding Assay for CREBBP
In order to assess bromodomain selectivity, we set up a binding assay using the bromodomain encoded by the CREBBP gene. […] Reactions were incubated at 30° C. for 35 minutes. Subsequently 4.5 μl per well detection mix (50 mM HEPES, pH 7.5, 0.005% Tween20, 0.02% BSA, 150 mM NaCl, 45 μg/ml Ni-chelate acceptor beads, 45 μg/ml streptavidin-donor beads) (Perkin Elmer)) were added. After 60 minutes incubation at room temperature, plates were measured in a Perkin Elmer EnVision multilabel reader. IC50 values were determined from percent inhibition values at different compound concentrations by non-linear regression analysis.
(§3) Preparation of Compound Dilutions
(§4) Test compounds were dissolved in DMSO (10 mM) and transferred into 1.4 mL flat bottom or V-shaped Matrix tubes carrying a unique 2D matrix. The stock solutions were stored at […] if not used immediately. For the test procedure the vials were defrosted and identified by a scanner whereby a working sheet was generated that guided the subsequent working steps. Compound dilutions were made in 96 well plates. This format enabled the assay of maximally 40 individual test compounds at 8 concentrations (single points) including 4 reference compounds, if desired (known BET inhibitors from the prior art, for this and other assays of the type disclosed herein). The dilution protocol included the production of “pre-dilution plates”, “master plates” and “assay plates”.
(§5) Pre-dilution plates: 96 polypropylene well plates were used as pre-dilution plates. A total of 4 pre-dilution plates were prepared including 10 test compounds each on the plate positions A1-A10, one standard compound at A11 and one DMSO control at A12. All dilution steps were done on a HamiltonSTAR robot.
(§6) These plates were used directly for the assay which was performed in a total volume of 13.55 μL.

K-562 cells = experiment: Cell growth inhibition assay (CellTiter-Glo), K-562; format: cell-based, human; conditions: K-562, 4 days; for GI50: Homo sapiens, K562, 96 h, half-maximal growth inhibition; for K-562 TGI: total growth inhibition
Description: as §1, §2

BRD2 (His-Brd2(60-472)) = BRD2 (His-Brd2(60-472)) (Homo sapiens (Human), UniProt P25440); experiment: TR-FRET in-vitro binding assay for BRD2; conditions: acetyl-histone H4 peptide
Sequence of BRD2 (His-Brd2(60-472)) (P25440 60-472): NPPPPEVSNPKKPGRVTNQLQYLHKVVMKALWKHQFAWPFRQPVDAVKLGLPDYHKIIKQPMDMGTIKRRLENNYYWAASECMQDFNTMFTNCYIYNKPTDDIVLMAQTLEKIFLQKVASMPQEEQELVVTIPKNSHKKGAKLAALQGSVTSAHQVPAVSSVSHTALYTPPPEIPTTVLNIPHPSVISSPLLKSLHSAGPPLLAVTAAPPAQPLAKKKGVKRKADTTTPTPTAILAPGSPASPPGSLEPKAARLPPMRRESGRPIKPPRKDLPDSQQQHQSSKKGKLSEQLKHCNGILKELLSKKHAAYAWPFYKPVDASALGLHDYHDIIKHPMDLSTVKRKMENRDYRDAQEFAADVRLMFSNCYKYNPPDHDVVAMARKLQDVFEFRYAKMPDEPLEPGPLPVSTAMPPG
Description: (§7) TR-FRET In-Vitro Binding Assays for BRD2, BRD3, and BRD4:
(§8) All assays were performed in 384 well microtiter plates. Each assay plate contained 8-point serial dilutions for 40 test compounds, plus 16 high- and 16 low controls. Liquid handling and incubation steps were done on an Innovadyne Nanodrop Express equipped with a robotic arm (Thermo CatX, Perkin Elmer/Caliper Twister II) and an incubator (Liconic STX40, Thermo Cytomat 2C450). The assay plates were prepared by addition of 50 nl per well of compound solution in 90% DMSO HummingBird nanodispenser (Zinsser Analytic). The assay was started by stepwise addition of 4.5 μl per well of bromo domain protein (50 mM HEPES, pH 7.5, 0.005% Tween20, 0.1% BSA, 50 mM NaCl, 45 nM His-Brd2(60-472) or 45 nM His-Brd3(20-477) or 45 nM His-Brd4(44-477) all proteins produced in-house) and 4.5 μl per well of peptide solution (50 mM HEPES, pH 7.5, 0.005% Tween20, 0.1% BSA, 50 mM NaCl, 60 nM acetyl-histone H4 (AcK 5, 8, 12, 16) (Biosyntan GmbH)). Reactions were incubated at 30° C. for 35 minutes. […] After 35 minutes incubation at 30° C., plates were measured in a Perkin Elmer EnVision multilabel reader. Concentrations causing 50% inhibition (IC50 values) were determined from percent inhibition values at different compound concentrations by non-linear regression analysis.
as §3, §4, §5
(§9) Master plates: 30 μL of individual compound dilutions including standard compound and controls of the 4 “pre-dilution plates” were transferred into a 384 “master plate” including the following concentrations 10000, 3003, 1000, 300, 100, 30, 10 and 3 μM, respectively in 90% of DMSO.
(§10) Assay plates: Identical “assay plates” were then prepared by pipetting 50 nL each of compound dilutions of the “master plates” into 384-well “assay plates” by means of a HummingBird 384-channel dispenser. These plates were used directly for the assay which was performed in a total volume of 13.55 μL. This led to a final compound concentration of 37, 11, 3.7, 1.1, 0.37, 0.11, 0.037 and 0.011 μM and a final DMSO concentration of 0.37% in the assay.

BRD4 (His-Brd4(44-477)) = BRD4 (His-Brd4(44-477)) (Homo sapiens (Human), UniProt O60885); experiment: TR-FRET in-vitro binding assay for BRD4; conditions: acetyl-histone H4 peptide
Description: as §7, §8, §3, §4, §5, §9, §10

BRD3 (His-Brd3(20-477)) = BRD3 (His-Brd3(20-477)) (Homo sapiens (Human), UniProt Q15059); experiment: TR-FRET in-vitro binding assay for BRD3; conditions: acetyl-histone H4 peptide
Sequence of BRD3 (His-Brd3(20-477)) (Q15059 20-477): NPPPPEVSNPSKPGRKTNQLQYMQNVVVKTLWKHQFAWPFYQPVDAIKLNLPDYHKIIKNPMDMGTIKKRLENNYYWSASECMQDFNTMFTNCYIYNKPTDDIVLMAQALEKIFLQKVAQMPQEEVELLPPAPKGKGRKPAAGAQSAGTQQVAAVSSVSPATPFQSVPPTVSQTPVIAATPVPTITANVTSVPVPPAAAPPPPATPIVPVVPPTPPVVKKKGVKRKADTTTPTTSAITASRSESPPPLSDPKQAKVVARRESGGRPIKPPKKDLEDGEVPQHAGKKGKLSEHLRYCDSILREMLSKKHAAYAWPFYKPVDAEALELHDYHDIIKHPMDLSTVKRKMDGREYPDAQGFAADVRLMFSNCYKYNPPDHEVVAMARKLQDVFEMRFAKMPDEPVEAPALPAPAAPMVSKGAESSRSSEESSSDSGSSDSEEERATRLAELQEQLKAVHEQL
Description: as §7
All assays were performed in 384 well microtiter plates. Each assay plate contained 8-point serial dilutions for 40 test compounds, plus 16 high- and 16 low controls. Liquid handling and incubation steps were done on an Innovadyne Nanodrop Express equipped with a robotic arm (Thermo CatX, Perkin Elmer/Caliper Twister II) and an incubator (Liconic STX40, Thermo Cytomat 2C450). The assay plates were prepared by addition of 50 nl per well of compound solution in 90% DMSO HummingBird nanodispenser (Zinsser Analytic). […] Reactions were incubated at 30° C. for 35 minutes. […] After 35 minutes incubation at 30° C., plates were measured in a Perkin Elmer EnVision multilabel reader.
as §3, §4, §5, §6

SMILES	GI50 (MV-4-11 cells) [nM]	MV-4-11 TGI (MV-4-11 cells) [nM]	GI50 (THP-1 cells) [nM]	THP-1 TGI (THP-1 cells) [nM]	IC50 [1] [nM]	GI50 (K-562 cells) [nM]	K-562 TGI (K-562 cells) [nM]	IC50 (BRD2 (His-Brd2(60-472))) [nM]	IC50 (BRD4 (His-Brd4(44-477))) [nM]	IC50 (BRD3 (His-Brd3(20-477))) [nM]
COc1ncccc1-c1nn(C)c2c1C(=O)N(c1cc(C)c3nnc(C)n3c1)C2c1ccc(Cl)cc1 (racemic) [Example 12, 6-(4-chlorophenyl)-5-(3,8-dimethyl-[1,2,4]triazolo[4,3-a]pyridin-6-yl)-3-(2-methoxypyridin-3-yl)-1-methyl-5,6-dihydropyrrolo[3,4-c]pyrazol-4(1H)-one]	17.5	37.8	40.5	97.35	12200	106	>10000	42	32	31
COc1cc(N2C(=O)c3c(C4CC4)nn(C)c3[C@H]2c2ccc(Cl)cc2)cn2c(C)nnc12 [Example 14, (R)-6-(4-chlorophenyl)-3-cyclopropyl-5-(8-methoxy-3-methyl-[1,2,4]triazolo[4,3-a]-pyridin-6-yl)-1-methyl-5,6-dihydropyrrolo[3,4-c]pyrazol-4(1H)-one]	20.1	39.55	51.4	118.5	27500	152	>10000	57	30	55
Cc1cc(N2C(=O)c3c(C4CC4)nn(C[C@@H](O)C(F)(F)F)c3[C@H]2c2ccc(Cl)cc2)cn2c(C)nnc12 [Example 19, (R)-6-(4-chlorophenyl)-3-cyclopropyl-5-(3,8-dimethyl-[1,2,4]triazolo[4,3-a]pyridin-6-yl)-1-((R)-3,3,3-trifluoro-2-hydroxypropyl)-5,6-dihydropyrrolo[3,4-c]pyrazol-4(1H)-one]	5.23	11.3	14.7	36.6	9400	58.4	>10000	29	23	25
Cc1nnc2c(N)cc(N3C(=O)c4c(C5CC5)nn(C)c4C3c3ccc(Cl)cc3)cn12 (stereo not shown) [Example 28, 5-(8-amino-3-methyl-[1,2,4]triazolo[4,3-a]pyridin-6-yl)-6-(4-chlorophenyl)-3-cyclopropyl-1-methyl-5,6-dihydropyrrolo[3,4-c]pyrazol-4(1H)-one]	1.56	3.515	2.83	9.04	3700	9.66	>10000	41	21	34
Cc1cc(N2C(=O)c3c(C4CC4)nn(C)c3[C@H]2c2ccc(Cl)cc2)cn2c(CF)nnc12 [Example 17, (R)-6-(4-chlorophenyl)-3-cyclopropyl-5-(3-(fluoromethyl)-8-methyl-[1,2,4]triazolo-[4,3-a]pyridin-6-yl)-1-methyl-5,6-dihydropyrrolo[3,4-c]pyrazol-4(1H)-one]	4.28	9.765	9.68	24.7	9800	63.1	>10000	11	< 11	< 11
Cc1cc(N2C(=O)c3c(C4CC4)nn(C)c3[C@H]2c2ccc(Cl)cc2)cc2c1nnn2C [Example 9, (R)-6-(4-chlorophenyl)-3-cyclopropyl-5-(1,4-dimethyl-1H-benzo[d][1,2,3]triazol-6-yl)-1-methyl-5,6-dihydropyrrolo[3,4-c]pyrazol-4(1H)-one]	2.57	5.745	4.41	10.76	3200	14.3	>10000	–	–	–
Cc1cc(N2C(=O)c3c(C4CC4)nn(C)c3C2c2ccc(Cl)cc2)cc2c1nnn2C (racemic) [Example 8, 6-(4-chlorophenyl)-3-cyclopropyl-5-(1,4-dimethyl-1H-benzo[d][1,2,3]triazol-6-yl)-1-methyl-5,6-dihydropyrrolo[3,4-c]pyrazol-4(1H)-one]	4.71	9.53	7.29	17.6	4800	24.8	>10000	–	–	–
